Reference: patent US20230348376A1 (TEIJIN PHARMA LIMITED, priority 2020, published 2023)
pEC50: −log10 of the molar value.

Key:
[1] = system: rat oligodendrocyte progenitor cells; experiment: Promotive activity of rat oligodendrocyte progenitor cell differentiation-1 (MBP gene expression, mRNA); format: cell-based; conditions: 4 days, MBP/β actin mRNA; for activation at 1 µM: Rattus norvegicus, Oligodendrocyte progenitor cell, 96 h, read-out: promotive activity at T3 base (MBP gene expression; DMSO 0%, T3 100%)
How it was run: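 Primary OPCs from 1-day-old SD rat forebrain, isolated by shaking off mixed glial cultures and seeded at 2×10^3 cells/well in B27/CNTF (10 ng/mL) differentiation medium with compound. MBP mRNA measured by one-step TaqMan real-time PCR and expressed as MBP/β-actin ratio.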

[2] = system: rat oligodendrocyte progenitor cells; experiment: Promotive activity of rat oligodendrocyte progenitor cell differentiation-2 (immunostaining of MBP); format: cell-based; conditions: vitamin D derivative 2 μM, T3 30 nM, 4 days
How it was run: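 Rat OPCs prepared by shaking in separation medium about 22 h at 37 °C, 200 rpm, and collecting the supernatant.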

[3] = Evaluation of brain penetration in mice (blood and brain concentration at brain Cmax); format: in vivo, mouse; conditions: 1 mg/kg single oral dose, C57BL/6J mice; for Concentration in blood (mean ± SD) at brain Cmax / Concentration in brain (mean ± SD) at brain Cmax: n=3; for Kp: male, C57BL/6J, mouse, brain/plasma, po, 1 mg/kg, read-out: Concentration in brain/in blood ratio at brain Cmax
How it was run: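 Male C57BL/6J mice (8 weeks, n=3) dosed orally once at 1 […] mg/kg; plasma and brain collected at 0.25, 0.5, 1, 2, 4 and 8 h. Compound extracted with acetonitrile from brain homogenate and plasma, quantified by LC/MS/MS.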

human VDR = target: T1, human VDR (Homo sapiens, UniProt P11473); experiment: Evaluation of VDR transcription activity in human osteoblasts (HOS cells), luciferase reporter; conditions: Activity (EC50, VDR transcription activity), HOS cells transfected with human VDR, human RXRα and DR3 luciferase reporter; 21 hours
T1 sequence (P11473 1-427): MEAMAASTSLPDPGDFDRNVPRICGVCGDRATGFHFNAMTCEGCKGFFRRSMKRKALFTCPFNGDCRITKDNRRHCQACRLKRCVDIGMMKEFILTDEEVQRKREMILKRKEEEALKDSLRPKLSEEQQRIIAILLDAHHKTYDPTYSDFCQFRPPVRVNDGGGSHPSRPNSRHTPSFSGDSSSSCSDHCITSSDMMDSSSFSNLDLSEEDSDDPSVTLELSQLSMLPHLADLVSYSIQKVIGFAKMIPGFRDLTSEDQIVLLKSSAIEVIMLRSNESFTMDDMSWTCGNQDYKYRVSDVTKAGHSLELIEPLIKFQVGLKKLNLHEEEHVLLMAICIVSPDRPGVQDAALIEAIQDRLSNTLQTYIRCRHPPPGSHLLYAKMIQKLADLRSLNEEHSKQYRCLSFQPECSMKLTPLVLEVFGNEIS
T1 sequence (P19793 1-462 partner): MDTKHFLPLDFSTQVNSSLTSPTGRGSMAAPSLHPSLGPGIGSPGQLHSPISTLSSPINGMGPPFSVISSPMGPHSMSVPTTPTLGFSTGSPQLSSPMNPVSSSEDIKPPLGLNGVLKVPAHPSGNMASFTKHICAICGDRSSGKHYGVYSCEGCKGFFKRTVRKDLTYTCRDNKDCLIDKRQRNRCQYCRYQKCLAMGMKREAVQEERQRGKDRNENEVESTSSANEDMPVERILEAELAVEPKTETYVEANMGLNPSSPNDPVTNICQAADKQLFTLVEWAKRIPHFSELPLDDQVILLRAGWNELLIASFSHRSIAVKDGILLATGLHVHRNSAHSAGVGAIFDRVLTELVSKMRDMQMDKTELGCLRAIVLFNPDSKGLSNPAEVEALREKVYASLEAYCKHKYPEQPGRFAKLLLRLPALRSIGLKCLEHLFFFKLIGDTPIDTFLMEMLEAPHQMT

[4] = system: mouse neural stem cells (NSCs); experiment: Promoting activity in oligodendrocyte differentiation of mouse neural stem cell (GalC immunostaining); format: cell-based; conditions: for Gal/C positive ratio Average value: day 10, N=5
Experimental: To NSC basal medium (100 mL) included in this product, B27 (1 mL), Penicillin-Streptomycin (1 mL), Glutamine (1 mL), bFGF (20 μL), EGF (10 μL), and Heparin (100 μL) were added to prepare the growth medium. Mouse neural stem cells were reconstituted in a T-25 flask using the growth medium and proliferated as a neurosphere by suspension culture. The cells were expanded by passaging at a split ratio=1:2 in a CO2 incubator (5% CO2, 37° C., wet) to obtain the required number of cells. ACCUTASE (Innovative Cell Technologies, Cat. No. AT104) was used as the passage reagent.
The differentiation medium containing test substance was prepared to a target final concentration by diluting a solution of 20 mM compound in DMSO to 10-fold with DMSO and then to 2×10^5-fold with the differentiation medium. Additive-free differentiation medium for control was prepared by diluting DMSO to 2×10^5-fold with the differentiation medium to be a final concentration of 5×10^−5%.
The mouse neural stem cells were seeded on a poly-L-Lysine/Laminin-coated 96-well plate at a cell density of 2.0×10^4 cells/100 μL/well using the differentiation medium and the culture was started in a CO2 incubator (5% CO2, 37° C., wet). The next day, the medium was replaced with the differentiation medium containing a test substance or an additive-free differentiation medium for control, and evaluation of the test substance (N=5) was started (day 0). The medium was replaced every other day by 60% of the medium in the wells. On day 10, cells were fixed and immunostained.
After the medium was removed, the cells were fixed by adding 100 μL of 4% paraformaldehyde-PBS and being incubated at room temperature for 30 minutes. Next, the cells were washed 3 times with PBS, 100 μL of 5% Goat Serum/PBS was added thereto, and the mixture was incubated at room temperature for 30 minutes to perform blocking and membrane permeation treatment. […] After the cells were washed 3 times with PBS, 100 μL of PBS was added to the wells, and the wells were photographed with fluorescence microscopy. Images were taken under the same condition in all wells, and blue fluorescence and green fluorescence were simultaneously photographed.
Using the hybrid cell counting software provided in the fluorescence microscope (Keyence, BZ-X700), co-localized spots of green fluorescence and blue fluorescence were extracted, and the number of these spots was defined as the total number of GalC-positive cells, and the oligodendrocyte differentiation ratio was calculated by the following calculation:the total number of GalC-positive cells/the number of nuclei (number of blue fluorescence spots). A significant difference test was performed by t-test between the additive-free group and the sample-added group.

SMILES	Concentration in blood (mean ± SD) at brain Cmax [3]	Concentration in brain (mean ± SD) at brain Cmax [3]	Kp [3]	pEC50 (human VDR)	activation at 1 µM [1]	Mean (number of MBP-positive cells/number of Hoechst33342-positive cells) ([2]; Test 2)	Gal/C positive ratio Average value ([4]; 10 nM)	Gal/C positive ratio Average value ([4]; 100 nM)	Gal/C positive ratio Average value ([4]; 1000 nM)	Mean (number of MBP-positive cells/number of Hoechst33342-positive cells) ([2]; Test 1)	promotive activity at T3 base (MBP gene expression; DMSO 0%, T3 100%) ([1]; 1 μM)	promoting activity in a Gal/C-positive oligodendrocyte differentiation ([4]; 1000 nM)
C=C1[C@H](O)CC(=C/C=C2\CCC[C@]3(C)[C@@H]([C@H](C)CN4CC[C@H](OCC(F)F)C4)CC[C@@H]23)C[C@H]1O [Compound B055, (1R,3R)-5-(2-((1R,3aS,7aR,E)-1-((S)-1-((S)-3-(2,2-difluoroethoxy)pyrrolidin-1-yl)propan-2-yl)-7a-methyloctahydro-4H-inden-4-ylidene)ethylidene)-2-methylenecyclohexane-1,3-diol]	309 ± 17 nM	327 ± 28 pmol/g	1.06	8.00 to 9.00	≥ 20%	0.56						
C[C@H](CN1CCOCC1)[C@H]1CC[C@H]2/C(=C/C=C3C[C@@H](O)C[C@H](O)C3)CCC[C@]12C [Compound D004, (1R,3R)-5-(2-((1R,3aS,7aR,E)-7a-methyl-1-((S)-1-morpholinopropan-2-yl)-octahydro-4H-inden-4-ylidene)ethylidene)cyclohexane-1,3-diol]							12.61	15.55	16.76			
C=C1[C@H](O)CC(=C/C=C2\CCC[C@]3(C)[C@@H]([C@H](C)CN4CC[C@H](CC(F)F)C4)CC[C@@H]23)C[C@H]1O [Compound B040, (1R,3R)-5-(2-((1R,3aS,7aR,E)-1-((S)-1-((R)-3-(2,2-difluoroethyl)pyrrolidin-1-yl)propan-2-yl)-7a-methyloctahydro-4H-inden-4-ylidene)ethylidene)-2-methylenecyclohexane-1,3-diol]	70 ± 10 nM	153 ± 35 pmol/g	2.18	8.00 to 9.00	≥ 20%					0.59		
C=C1/C(=C\C=C2/CCC[C@]3(C)[C@@H]([C@H](C)CCCC(C)(C)O)CC[C@@H]23)C[C@@H](O)C[C@@H]1O [1α,25-dihydroxyvitamin D3, reference compound]											0%	1.5 times
C[C@H](CN1CC[C@H](OC(F)F)C1)[C@H]1CC[C@H]2/C(=C/C=C3C[C@@H](O)C[C@H](O)C3)CCC[C@]12C [Compound B051, (1R,3R)-5-(2-((1R,3aS,7aR,E)-1-((S)-1-((S)-3-(difluoromethoxy)pyrrolidin-1-yl)propan-2-yl)-7a-methyloctahydro-4H-inden-4-ylidene)ethylidene)cyclohexane-1,3-diol]	304 ± 35 nM	644 ± 92 pmol/g	2.12	7.00 to 8.00	≥ 20%	0.45						
C[C@H](CCN1CCOC[C@@H]1C)[C@H]1CC[C@H]2/C(=C/C=C3C[C@@H](O)C[C@H](O)C3)CCC[C@]12C [Compound D043, (1R,3R)-5-(2-((1R,3aS,7aR,E)-7a-methyl-1-((R)-4-((S)-3-methylmorpholino)butan-2-yl)octahydro-4H-inden-4-ylidene)ethylidene)cyclohexane-1,3-diol]					≥ 20%		12.81	12.27	16.09			
C=C1[C@H](O)CC(=C/C=C2\CCC[C@]3(C)[C@@H]([C@H](C)CN4CC[C@@H](C(F)F)C4)CC[C@@H]23)C[C@H]1O [Compound B027, (1R,3R)-5-(2-((1R,3aS,7aR,E)-1-((S)-1-((R)-3-(difluoromethyl)pyrrolidin-1-yl)propan-2-yl)-7a-methyloctahydro-4H-inden-4-ylidene)ethylidene)-2-methylenecyclohexane-1,3-diol]	126 ± 14 nM	414 ± 40 pmol/g	3.29	8.00 to 9.00	≥ 20%					0.29		

The next lines start with results.

Concentration in blood (mean ± SD) at brain Cmax [3]	Concentration in brain (mean ± SD) at brain Cmax [3]	Kp [3]	pEC50 (human VDR)	SMILES	activation at 1 µM [1]	Mean (number of MBP-positive cells/number of Hoechst33342-positive cells) ([2]; Test 2)	Gal/C positive ratio Average value ([4]; 10 nM)	Gal/C positive ratio Average value ([4]; 100 nM)	Gal/C positive ratio Average value ([4]; 1000 nM)	Mean (number of MBP-positive cells/number of Hoechst33342-positive cells) ([2]; Test 1)	promotive activity at T3 base (MBP gene expression; DMSO 0%, T3 100%) ([1]; 1 μM)	promoting activity in a Gal/C-positive oligodendrocyte differentiation ([4]; 1000 nM)
			8.00 to 9.00	C[C@H](CCCN1CCOCC1)[C@H]1CC[C@H]2/C(=C/C=C3C[C@@H](O)C[C@H](O)C3)CCC[C@]12C [Compound D044, (1R,3R)-5-(2-((1R,3aS,7aR,E)-7a-methyl-1-((R)-5-morpholinopentan-2-yl)octahydro-4H-inden-4-ylidene)ethylidene)cyclohexane-1,3-diol]	≥ 20%		9.10	8.22	12.37			
			7.00 to 8.00	C=C1/C(=C\C=C2/CCC[C@]3(C)[C@@H]([C@H](C)CCN4CCOC[C@@H]4C)CC[C@@H]23)C[C@@H](O)CC1O (stereo in doubt) [Compound D045, (1R,3R,Z)-5-(2-((1R,3aS,7aR,E)-7a-methyl-1-((R)-4-((S)-3-methylmorpholino)butan-2-yl)octahydro-4H-inden-4-ylidene)ethylidene)-4-methylenecyclohexane-1,3-diol]			11.46	12.01	14.93			
			7.00 to 8.00	C[C@H](CCN1CCOC[C@H]1C)[C@H]1CC[C@H]2/C(=C/C=C3C[C@@H](O)C[C@H](O)C3)CCC[C@]12C [Compound D042, (1R,3R)-5-(2-((1R,3aS,7aR,E)-7a-methyl-1-((R)-4-((R)-3-methylmorpholino)butan-2-yl)octahydro-4H-inden-4-ylidene)ethylidene)cyclohexane-1,3-diol]			12.25	14.27	15.80			
